US4835155A, “Process for protection of brain cells” (Nippon Chemiphar Co., Ltd., priority 1986, dated 1989)
Counter-ions that a name gives are not always drawn.

Key:
[1] = Acute toxicity, oral, observed for seven days; conditions: in vivo, ddN male mouse about 20 g
[2] = test system: brain cells (delayed neuronal damage); conditions: Kirino et al., Progress in Brain Research, vol. 63: 39-58 (1985); cited from earlier work
[3] = pentobarbital acts nonselectively; cited from earlier work

With `COc1cc(C(O)CN2CCN(C(c3ccccc3)c3ccccc3)CC2)cc(OC)c1OC` (stereo not shown) [B, 2(4-diphenylmethylpiperazinyl)-1-(3,4,5-trimethoxyphenyl)ethanol monohydrochloride] the LD50 at 168 h [1] was greater than 2000 mg/kg.

With `Oc1ccc(C(O)CN2CCN(C(c3ccccc3)c3ccccc3)CC2)cc1` (stereo not shown) [C, 2(4-diphenylmethylpiperazinyl)-1-(4-hydroxyphenyl)ethanol monohydrochloride] the LD50 at 168 h [1] was greater than 2000 mg/kg.

In the case of `CCCC(C)C1(CC)C(=O)NC(=O)NC1=O` (stereo not shown) [pentobarbital], the “Effect of protection of brain cells / suppression of delayed neuronal damage” value [2] is given as “markedly suppress the above-mentioned delayed neuronal damage” and the “Action on central nervous system” value [3] is given as “the action of central nervous system is also strongly subsided”.
